US12077503B2, “Substituted cyclic amides and their use as herbicides” (FMC CORPORATION, priority 2015, dated 2024)

Legend:
Assay type in all cases: in vivo
[1] = system: corn (Zea mays); assay: Test G Pre-Emergence Protocol; settings: Zea mays, pre-emergence, 312 h, evaluated after 13 days; for plant injury at 15.625 g/ha: 15.625 g ai/ha; for plant injury at 15.625 g/ha / plant injury at 250 g/ha: read-out: Corn damage rating (100=total damage to plant; 0=no damage to plant); for plant injury at 62.5 g/ha: 62.5 g ai/ha, 100=total damage to plant, 0=no damage to plant, read-out: Corn damage rating; for plant injury at 250 g/ha: 250 g ai/ha
Method in brief: (§1)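 Under a 24/16° C day/night regime with 14 h light and 65% humidity, sown pots were sprayed after one day with compound (15.625, 62.5 or 250 g/ha; 50:50 acetone/water, 0.5% Tween 20). Damage was assessed visually 13 days later, 0 to 100.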

[2] = system: ivy-leaved morning glory (Ipomoea hederacea); assay: Test G Pre-Emergence Protocol; settings: Ipomoea, pre-emergence, 312 h, evaluated after 13 days; for pest or weed control at 15.625 g/ha: 15.625 g ai/ha; for pest or weed control at 15.625 g/ha / pest or weed control at 250 g/ha: read-out: Morningglory, Ivy-leaved damage rating (100=total damage to plant; 0=no damage to plant); for pest or weed control at 62.5 g/ha: 62.5 g ai/ha, 100=total damage to plant, 0=no damage to plant, read-out: Morningglory, Ivy-leaved damage rating; for pest or weed control at 250 g/ha: 250 g ai/ha
Method in brief: as §1

[3] = system: velvetleaf (Abutilon theophrasti); assay: Test G Pre-Emergence Protocol; settings: Abutilon theophrasti, pre-emergence, 312 h, evaluated after 13 days; for pest or weed control at 15.625 g/ha: 15.625 g ai/ha; for pest or weed control at 15.625 g/ha / pest or weed control at 250 g/ha: read-out: Velvetleaf damage rating (100=total damage to plant; 0=no damage to plant); for pest or weed control at 62.5 g/ha: 62.5 g ai/ha, 100=total damage to plant, 0=no damage to plant, read-out: Velvetleaf damage rating; for pest or weed control at 250 g/ha: 250 g ai/ha
Method in brief: as §1

[4] = system: barnyardgrass (Echinochloa crus-galli); assay: Test G Pre-Emergence Protocol; settings: Echinochloa crus-galli, pre-emergence, 312 h, evaluated after 13 days; for pest or weed control at 15.625 g/ha: 15.625 g ai/ha; for pest or weed control at 15.625 g/ha / pest or weed control at 250 g/ha: read-out: Barnyardgrass damage rating (100=total damage to plant; 0=no damage to plant); for pest or weed control at 62.5 g/ha: 62.5 g ai/ha, 100=total damage to plant, 0=no damage to plant, read-out: Barnyardgrass damage rating; for pest or weed control at 250 g/ha: 250 g ai/ha
Method in brief: as §1

[5] = system: redroot pigweed (Amaranthus retroflexus); assay: Test G Pre-Emergence Protocol; settings: Amaranthus retroflexus, pre-emergence, 312 h, evaluated after 13 days; for pest or weed control at 15.625 g/ha: 15.625 g ai/ha; for pest or weed control at 15.625 g/ha / pest or weed control at 250 g/ha: read-out: Pigweed, Redroot damage rating (100=total damage to plant; 0=no damage to plant); for pest or weed control at 62.5 g/ha: 62.5 g ai/ha, 100=total damage to plant, 0=no damage to plant, read-out: Pigweed, Redroot damage rating; for pest or weed control at 250 g/ha: 250 g ai/ha
Method in brief: as §1

[6] = system: giant foxtail (Setaria faberi); assay: Test G Pre-Emergence Protocol; settings: Setaria faberi, pre-emergence, 312 h, evaluated after 13 days; for pest or weed control at 15.625 g/ha: 15.625 g ai/ha; for pest or weed control at 15.625 g/ha / pest or weed control at 250 g/ha: read-out: Foxtail, Giant damage rating (100=total damage to plant; 0=no damage to plant); for pest or weed control at 62.5 g/ha: 62.5 g ai/ha, 100=total damage to plant, 0=no damage to plant, read-out: Foxtail, Giant damage rating; for pest or weed control at 250 g/ha: 250 g ai/ha
Method in brief: as §1

[7] = system: corn (Zea mays); assay: Test G Post-Emergence Protocol; settings: Zea mays, post-emergence, 312 h, read-out: Corn damage rating; for plant injury at 15.625 g/ha: 15.625 g ai/ha, evaluated after 13 days (100=total damage to plant; 0=no damage to plant); for plant injury at 62.5 g/ha: 62.5 g ai/ha; for plant injury at 62.5 g/ha / plant injury at 250 g/ha: evaluated after 13 days, 100=total damage to plant, 0=no damage to plant; for plant injury at 250 g/ha: 250 g ai/ha
Method in brief: (§2)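 Damage was rated 13 days after treatment from 0 (none) to 100 (plant killed). Compound was applied as a spray at 15.625, 62.5 or 250 g/ha in 50:50 acetone/water containing 0.5% Tween 20, onto 8-day-old potted plants kept in a glasshouse (24/16 °C, 14 h light, 65% humidity).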

[8] = system: ivy-leaved morning glory (Ipomoea hederacea); assay: Test G Post-Emergence Protocol; settings: Ipomoea, post-emergence, 312 h, read-out: Morningglory, Ivy-leaved damage rating; for pest or weed control at 15.625 g/ha: 15.625 g ai/ha, evaluated after 13 days (100=total damage to plant; 0=no damage to plant); for pest or weed control at 62.5 g/ha: 62.5 g ai/ha; for pest or weed control at 62.5 g/ha / pest or weed control at 250 g/ha: evaluated after 13 days, 100=total damage to plant, 0=no damage to plant; for pest or weed control at 250 g/ha: 250 g ai/ha
Method in brief: as §2

[9] = system: velvetleaf (Abutilon theophrasti); assay: Test G Post-Emergence Protocol; settings: Abutilon theophrasti, post-emergence, 312 h, read-out: Velvetleaf damage rating; for pest or weed control at 15.625 g/ha: 15.625 g ai/ha, evaluated after 13 days (100=total damage to plant; 0=no damage to plant); for pest or weed control at 62.5 g/ha: 62.5 g ai/ha; for pest or weed control at 62.5 g/ha / pest or weed control at 250 g/ha: evaluated after 13 days, 100=total damage to plant, 0=no damage to plant; for pest or weed control at 250 g/ha: 250 g ai/ha
Method in brief: as §2

[10] = system: barnyardgrass (Echinochloa crus-galli); assay: Test G Post-Emergence Protocol; settings: Echinochloa crus-galli, post-emergence, 312 h, read-out: Barnyardgrass damage rating; for pest or weed control at 15.625 g/ha: 15.625 g ai/ha, evaluated after 13 days (100=total damage to plant; 0=no damage to plant); for pest or weed control at 62.5 g/ha: 62.5 g ai/ha; for pest or weed control at 62.5 g/ha / pest or weed control at 250 g/ha: evaluated after 13 days, 100=total damage to plant, 0=no damage to plant; for pest or weed control at 250 g/ha: 250 g ai/ha
Method in brief: as §2

[11] = system: redroot pigweed (Amaranthus retroflexus); assay: Test G Post-Emergence Protocol; settings: Amaranthus retroflexus, post-emergence, 312 h, read-out: Pigweed, Redroot damage rating; for pest or weed control at 15.625 g/ha: 15.625 g ai/ha, evaluated after 13 days (100=total damage to plant; 0=no damage to plant); for pest or weed control at 62.5 g/ha: 62.5 g ai/ha; for pest or weed control at 62.5 g/ha / pest or weed control at 250 g/ha: evaluated after 13 days, 100=total damage to plant, 0=no damage to plant; for pest or weed control at 250 g/ha: 250 g ai/ha
Method in brief: as §2

[12] = system: giant foxtail (Setaria faberi); assay: Test G Post-Emergence Protocol; settings: Setaria faberi, post-emergence, 312 h, read-out: Foxtail, Giant damage rating; for pest or weed control at 15.625 g/ha: 15.625 g ai/ha, evaluated after 13 days (100=total damage to plant; 0=no damage to plant); for pest or weed control at 62.5 g/ha: 62.5 g ai/ha; for pest or weed control at 62.5 g/ha / pest or weed control at 250 g/ha: evaluated after 13 days, 100=total damage to plant, 0=no damage to plant; for pest or weed control at 250 g/ha: 250 g ai/ha
Method in brief: as §2

Row | SMILES | plant injury at 15.625 g/ha [1] | plant injury at 62.5 g/ha [1] | plant injury at 250 g/ha [1] | pest or weed control at 15.625 g/ha [2] | pest or weed control at 62.5 g/ha [2] | pest or weed control at 250 g/ha [2] | pest or weed control at 15.625 g/ha [3] | pest or weed control at 62.5 g/ha [3] | pest or weed control at 250 g/ha [3] | pest or weed control at 15.625 g/ha [4] | pest or weed control at 62.5 g/ha [4] | pest or weed control at 250 g/ha [4] | pest or weed control at 15.625 g/ha [5] | pest or weed control at 62.5 g/ha [5] | pest or weed control at 250 g/ha [5] | pest or weed control at 15.625 g/ha [6] | pest or weed control at 62.5 g/ha [6] | pest or weed control at 250 g/ha [6] | plant injury at 15.625 g/ha [7] | plant injury at 62.5 g/ha [7] | other results
1 | Cc1cc(C2CN(C)C(=O)C2C(=O)Nc2cccc(F)c2F)cc(Cl)c1F (stereo not drawn) [Compound 1708] | 0% | 0% | 0% | 0% | 0% | 20% | 0% | 0% | 0% | 20% | 30% | 60% | 0% | 0% | 0% | 60% | 80% | 90% | 10% | 30% | plant injury at 250 g/ha [7]: 70%; pest or weed control at 15.625 g/ha [8]: 20%; pest or weed control at 62.5 g/ha [8]: 20%; pest or weed control at 250 g/ha [8]: 20%; pest or weed control at 15.625 g/ha [9]: 0%; pest or weed control at 62.5 g/ha [9]: 0%; pest or weed control at 250 g/ha [9]: 0%; pest or weed control at 15.625 g/ha [10]: 40%; pest or weed control at 62.5 g/ha [10]: 50%; pest or weed control at 250 g/ha [10]: 80%; pest or weed control at 15.625 g/ha [11]: 0%; pest or weed control at 62.5 g/ha [11]: 0%; pest or weed control at 250 g/ha [11]: 0%; pest or weed control at 15.625 g/ha [12]: 40%; pest or weed control at 62.5 g/ha [12]: 60%; pest or weed control at 250 g/ha [12]: 60%
2 | CN1CC(c2ccc(C(F)(F)F)c(C(F)(F)F)c2)C(C(=O)Nc2cccc(F)c2F)C1=O (stereo not drawn) [Compound 1714] | 0% | 0% | 10% | 0% | 0% | 10% | 0% | 0% | 0% | 0% | 50% | 80% | 0% | 0% | 10% | 30% | 70% | 80% | 20% | 30% | plant injury at 250 g/ha [7]: 50%; pest or weed control at 15.625 g/ha [8]: 10%; pest or weed control at 62.5 g/ha [8]: 20%; pest or weed control at 250 g/ha [8]: 60%; pest or weed control at 15.625 g/ha [9]: 0%; pest or weed control at 62.5 g/ha [9]: 30%; pest or weed control at 250 g/ha [9]: 40%; pest or weed control at 15.625 g/ha [10]: 40%; pest or weed control at 62.5 g/ha [10]: 70%; pest or weed control at 250 g/ha [10]: 80%; pest or weed control at 15.625 g/ha [11]: 70%; pest or weed control at 62.5 g/ha [11]: 80%; pest or weed control at 250 g/ha [11]: 90%; pest or weed control at 15.625 g/ha [12]: 70%; pest or weed control at 62.5 g/ha [12]: 80%; pest or weed control at 250 g/ha [12]: 80%
